Measured values from US20130116148A1, “LIVER DISEASE MARKER, METHOD AND APPARATUS FOR MEASURING THE SAME, AND METHOD FOR ASSAYING PHARMACEUTICAL PREPARATION” (KEIO UNIVERSITY, priority 2010, published 2013).

Experiments:
glutathione = details: mouse, large quantities of APAP, cited from earlier work
[1] = tested on: glutathione-biosynthesis pathway; assay: Administration of GCS inhibitor BSO and GCS activator DEM to mice; metabolites in the livers by CE-TOFMS; assay type: in vivo; details: mouse liver
Experimental: Male mice were fasted overnight and anesthetized by an intraperitoneal injection of pentobarbital sodium (60 mg/Kg of body weight). Then, the mice were intraperitoneally injected with BSO, which is aγ-glutamyl cysteine synthase (GCS) inhibitor, and diethylmaleate (DEM), which is an electrophile (GCS activator), both at a dose of 4 mmol/kg of body weight (888 mg of BSO, 688 mg of DEM). The mouse as a healthy subject was intraperitoneally injected with physiological saline. Liver specimens (about 300 mg) were excised from the mice 1 hour after administration (5 times each).
The liver specimens (about 300 mg) excised from the mice were immediately placed in 1 ml of methanol containing an internal standard substance and were homogenized to inactivate an enzyme, thereby stopping enhancement of metabolism. After 500 μl of pure water was added to the mixture, 300 μl of solution was taken out. To this solution, 200 μl of chloroform was added. After thorough stirring, the solution was further centrifuged at 15000 rpm for 15 minutes at 4° C. After allowing to stand, 300 μl of separated water-methanol phase was passed through a 5 kDa molecular weight cutoff filter for centrifugal ultrafiltration to deproteinize it. […]
The method described below was used to confirm that the detected γ-Glu-X peptides and γ-Glu-X-Gly peptides were synthesized in a glutathione-biosynthesis pathway.

[2] = tested on: glutathione-biosynthesis pathway; assay: Administration of BSO and DEM to mice; γ-Glu-X and γ-Glu-X-Gly peptides in the murine serum; assay type: in vivo; details: mouse serum, compared to the normal state
Experimental: Male mice were fasted overnight and anesthetized by an intraperitoneal injection of pentobarbital sodium (60 mg/Kg of body weight). Then, the mice were intraperitoneally injected with BSO, which is aγ-glutamyl cysteine synthase (GCS) inhibitor, and diethylmaleate (DEM), which is an electrophile (GCS activator), both at a dose of 4 mmol/kg of body weight (888 mg of BSO, 688 mg of DEM). The mouse as a healthy subject was intraperitoneally injected with physiological saline. Liver specimens (about 300 mg) were excised from the mice 1 hour after administration (5 times each). On the other hand, regarding the substances in the murine serum, γ-Glu-X peptides and γ-Glu-X-Gly peptides that were decreased by administration of BSO and were increased by administration of an electronic substance, DEM, compared to the normal state were only γ-[…]AB and ophthalmic acid (γ-[…]AB-Gly) (FIG. 22). Therefore, it is expected that, in the case of a mouse, only γ-[…]AB and ophthalmic acid are increased in the blood when glutathione is decreased because of the oxidative stress caused by electrophiles or the like.

| SMILES | ophthalmic acid (glutathione; in inverse proportion to the glutathione level) | glutathione (glutathione) | amount of glutathione in the livers ([1]; 1 hour after i.p. 4 mmol/kg, compared to the healthy mouse) | γ-Glu-X and γ-Glu-X-Gly peptidic substances in the liver other than γ-Glu-Cys, GSH and γ-Glu-Ser-Gly ([1]; compared to the normal) | γ-Glu-2AB and ophthalmic acid (γ-Glu-2AB-Gly) in the murine serum [2] |
| --- | --- | --- | --- | --- | --- |
| CC(=O)Nc1ccc(O)cc1 [APAP, Acetaminophen] | increased rapidly | decreased |  |  |  |
| CCCCS(=N)(=O)CCC(N)C(=O)O (centres unmarked) [BSO, buthionine sulfoximine] |  |  | decreased rapidly | decreased | decreased |
